What is called IC50 is the concentration that gives 50% inhibition. A lower IC50 goes with higher potency.

Experiment [1] has as its target T1, steroid sulfatase (Homo sapiens, UniProt P08842).
T1 sequence (P08842 22-583): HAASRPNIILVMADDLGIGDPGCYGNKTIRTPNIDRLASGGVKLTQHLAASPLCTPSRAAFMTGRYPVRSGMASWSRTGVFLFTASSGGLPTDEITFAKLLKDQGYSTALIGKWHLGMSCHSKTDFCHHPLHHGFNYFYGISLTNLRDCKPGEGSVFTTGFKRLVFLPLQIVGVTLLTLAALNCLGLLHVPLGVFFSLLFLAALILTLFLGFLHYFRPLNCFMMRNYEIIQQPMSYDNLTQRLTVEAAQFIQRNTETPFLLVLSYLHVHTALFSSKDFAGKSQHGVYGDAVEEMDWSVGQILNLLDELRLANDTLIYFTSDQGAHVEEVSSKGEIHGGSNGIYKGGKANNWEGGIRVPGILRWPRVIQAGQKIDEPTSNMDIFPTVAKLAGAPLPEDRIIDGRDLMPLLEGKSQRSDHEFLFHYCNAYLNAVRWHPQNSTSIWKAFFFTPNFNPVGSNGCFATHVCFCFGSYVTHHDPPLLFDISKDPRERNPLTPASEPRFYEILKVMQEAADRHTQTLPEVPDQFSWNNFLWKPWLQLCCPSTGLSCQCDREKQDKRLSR
The experiment can be described thus: Assay using human skin homogenate (DHEAS cleavage). The arrangement: Frozen specimens of human cadaver skin (about 100 mg per sample) are minced into small pieces; from tissue; host or cells: human cadaver skin, minced, in Triton X-100 buffer. The following applies: human cadaver skin homogenate; [3H]DHEAS substrate; 18 hrs at 37° C. It is filed as biochemical. The method, then:
Frozen specimens of human cadaver skin (about 100 mg per sample) are minced into small pieces (about 1×1 mm) using sharp scissors. The pieces obtained are suspended in ten volumes (w/w) of buffer (20 mM Tris-HCl, pH 7.5), containing 0.1% Triton X-100. Test compounds (e.g. compounds of the present invention or compounds for use in the present invention) are added at graded concentrations from stock solutions in ethanol or DMSO. Second, DHEAS as the substrate is added (1 μC/ml [^3H]DHEAS, specific activity: about 60 Cl/mmol, and 20 μM unlabeled DHEAS). Samples are incubated for 18 hrs at 37° C. At the end of the incubation period, 50 μl of 1 M Tris, pH 10.4 and 3 ml of toluene are added. A 1-ml aliquot of the organic phase is removed and subjected to liquid scintillation counting. The determined dpm-values in the aliquots are converted to nmol of DHEA cleaved per g of skin per hour.

Experiment [2] addresses T1, steroid sulfatase. The experiment can be described thus: Assay of human steroid sulfatase (4-methylumbelliferyl sulfate cleavage, fluorescence). It is filed as biochemical. On the set-up: Human placenta is obtained freshly after delivery and stripped of membranes and connective tissues; from tissue; host or cells: human placenta (microsomes, Triton X-100 extract, chromatographically purified). The following applies: purified human placental steroid sulfatase; 4-methylumbelliferyl sulfate substrate; 37° C., 1 hour. The method, then: Human placenta is obtained freshly after delivery and stripped of membranes and connective tissues. For storage, the material is frozen at −70° C. After thawing, all further steps are carried out at 4° C., while pH values are adjusted at 20° C. 400 g of the tissue is homogenized in 1.2 l of buffer A (50 mM Tris-HCl, pH 7.4, 0.25 M sucrose). The homogenate obtained is centrifuged at 10,000×g for 45 minutes. The supernatant is set aside and the pellet obtained is re-homogenized in 500 ml of buffer A. After centrifugation, the two supernatants obtained are combined and subjected to ultracentrifugation (100,000×g, 1 hour). The pellet obtained is resuspended in buffer A and centrifugation is repeated. […]
It is known that purified human steroid sulfatase not only is capable to cleave steroid sulfates, but also readily cleaves aryl sulfates such as 4-methylumbelliferyl sulfate which is used in the present test system as an activity indicator. […]
Plates are incubated at 37° C. for 1 hour. […] Fluorescence intensity is determined in a Titertek Fluoroskan II instrument with λex=355 nm and λem=460 nm. […]
[formula] wherein I100 is the intensity observed in the absence of inhibitor and s is a slope factor. Estrone sulfamate is used as a reference compound and its IC50 value is determined in parallel to all other test compounds. […]

For “2-[2-(3,5-Bis-trifluoromethyl-benzenesulfonylamino)-6,7-dihydro-4H-thiazolo-[5,4-c]pyridin-yl]4-trifluoromethyl-benzamide [Example 1]”, at steroid sulfatase [1], 160 nM corresponded to half-maximal inhibition (IC50).
The compound `CC12CCC3c4ccc(OS(N)(=O)=O)cc4CCC3C1CCC2=O` (centres unmarked) [estrone sulfamate] returned an IC50 against steroid sulfatase [2] of around 60 nM.
